{"source": "paper PMC11078216", "about": "“Discovery of potent and selective activity-based probes (ABPs) for the deubiquitinating enzyme USP30” (RSC Chemical Biology, 2024)", "key": {"PGAP1": {"molecular_target": "T1, PGAP1 (Homo sapiens, UniProt Q75T13)", "T1 construct": "endogenous in cells; host or cells: HEK293T", "T1 sequence (Q75T13 whole entry)": "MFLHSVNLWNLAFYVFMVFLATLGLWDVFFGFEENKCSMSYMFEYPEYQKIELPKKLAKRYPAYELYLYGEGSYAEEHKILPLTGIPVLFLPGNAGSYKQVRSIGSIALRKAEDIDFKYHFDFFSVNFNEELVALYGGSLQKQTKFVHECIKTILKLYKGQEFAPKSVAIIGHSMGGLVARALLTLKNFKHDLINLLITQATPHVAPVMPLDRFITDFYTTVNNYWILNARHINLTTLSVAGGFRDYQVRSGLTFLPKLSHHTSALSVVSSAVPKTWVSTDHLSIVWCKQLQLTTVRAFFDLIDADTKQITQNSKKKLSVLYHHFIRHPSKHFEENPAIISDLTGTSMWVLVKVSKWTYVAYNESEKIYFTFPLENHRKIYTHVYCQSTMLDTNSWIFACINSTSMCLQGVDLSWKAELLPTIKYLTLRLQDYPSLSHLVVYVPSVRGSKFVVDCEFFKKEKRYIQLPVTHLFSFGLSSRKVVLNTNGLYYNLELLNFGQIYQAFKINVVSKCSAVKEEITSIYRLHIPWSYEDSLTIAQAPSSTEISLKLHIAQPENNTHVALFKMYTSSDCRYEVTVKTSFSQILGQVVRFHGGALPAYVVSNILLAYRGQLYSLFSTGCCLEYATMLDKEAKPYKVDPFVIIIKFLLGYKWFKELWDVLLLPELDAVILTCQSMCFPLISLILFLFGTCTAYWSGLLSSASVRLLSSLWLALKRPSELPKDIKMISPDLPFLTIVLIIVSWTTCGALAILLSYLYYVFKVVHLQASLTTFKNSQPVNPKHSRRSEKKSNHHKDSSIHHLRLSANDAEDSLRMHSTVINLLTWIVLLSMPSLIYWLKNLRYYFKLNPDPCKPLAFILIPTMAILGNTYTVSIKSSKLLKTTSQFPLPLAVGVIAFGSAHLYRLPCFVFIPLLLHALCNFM", "assay": "ABPP chemical proteomics (LC-MS/MS) in HEK293T cells", "format": "cell-based", "description": "(§1) To explore the selectivity of IMP-2587 and IMP-2586 across the whole proteome, we performed quantitative activity-based protein profiling (ABPP) in HEK293T cells following treatment with IMP-2587 or IMP-2586 (Fig. 3a). After ABP incubation, cells were lysed, and probe-labelled proteins were ligated to biotinylated capture reagents.[27] […] USP30 was outcompeted by corresponding parent inhibitors for each ABP (Fig. 5b and d and Tables S3 and S5, ESI ^†), confirming the high potency and rapid engagement of IMP-2587 and IMP-2586 in cells. […] DESI1 and DESI2 are small ubiquitin-related modifier (SUMO) proteases,[3,29–32] and IMP-2587 and IMP-2586 may offer a starting point for future development of DESI ABPs. […]\n(§2) d) Live cell probe incubation, lysate click chemistry and precipitation 6-well HEK293T cells were incubated with media containing compounds ABP 2 and ABP 4 at indicated concentrations for 1 h at 37 °C. The cells were washed with PBS and lysed with lysis buffer (50 μL (1% (v/v) Triton X-100, 0.1% (w/v) sodium dodecyl sulfate (SDS), EDTA-free complete protease inhibitor cocktail (1×, Roche) in PBS on ice for 10 min. The lysates were scraped and transferred to corresponding Lo-Bind Eppendorfs. Each lysate was sonicated for 1 minute, and the samples centrifuges at 5,000 x g at 4 °C for 5 minutes to pellet insoluble cellular debris. The supernatant was collected, and protein concentration was determined using the DC Protein Assay (Bio-Rad) as per manufacturer’s instructions, and normalised to lowest concentrated sample (e.g. 1 mg/mL, using lysis buffer). The following “click mixture” was prepared separately, preparing 6 μL for every 100 μL of […]\n(§3) Capture reagent (AzRB/AzT for ABP 2, YnT/YnB for ABP 4 10 mM in DMSO, 1 vol; final concentration […]\n(§4) CuSO4 (50 mM in water, 2 vol; final concentration in reaction 1 mM)\n(§5) TCEP (50 mM in water, 2 vol; final concentration in reaction 1 mM)\n(§6) TBTA (10 mM in DMSO, 1 vol; final concentration in reaction 100 µM)\n(§7) The click mixture was vortexed and incubated at room temperature for 2 min before 6 μL of the mixture was added to every 100 μL of lysate. The reaction mixtures were shaken at room temperature for 1 h before being quenched with EDTA (500 mM in H2O) to a final concentration of 10 mM.\n(§8) Proteins were precipitated by adding H2O (1 vol), MeOH (2 vol) and CHCl3 (0.5 vol), vortexing briefly then centrifuging at 17,000 × g for 5 min. The top H2O/MeOH layer was discarded and the middle layer of protein pellet and lower CHCl3 layer retained. The suspension was washed with MeOH (300 μL), and sonicated to break up the pellet. The proteins were pelleted by centrifugation at 10,000–17000 × g for 5–10 min or until a compact pellet was formed. The protein pellet was washed once more with MeOH (1 mL). The pellet was resuspended by sonicating and completely dissolving in 1% (w/v) SDS in PBS (to 5 mg/mL protein) before being made up to 1 mg/mL protein with PBS.\n(§9) The lysate samples (10-20 μg) were mixed with 4× Laemmli sample loading buffer (250 mM Tris -HCl pH 6.8, 30% (v/v) glycerol, 10% (w/v) SDS, 0.05% (w/v) bromophenol blue) supplemented with 20% v/v β-mercaptoethanol (BME) and boiled for 10 min at 95 °C. The resulting protein samples were separated according to the protocol in section 3.2.c. Gel were imaged on a Typhoon imager (GE Healthcare; λEx 532 nm, λEm 575 nm for TAMRA. For protein loading quantification, gels were stained with Coomassie blue staining solution overnight, rinsed with water and imaged on an ImageQuant™ LAS 4000 imager (GE Healthcare). f) Neutravidin biotin enrichment (Affinity pull-down)\n(§10) Click chemistry and precipitation steps were carried out as described in section 3.2.d, on at least 400ug of protein per sample. The pellet was resuspended by sonicating and completely dissolving in 1% (w/v) SDS in HEPES 50 mM pH 8.0, before being made up to 1 mg/mL protein with HEPES 50 mM pH 8.0 to […]\n(§11) achieve a final concentration of 0.2% SDS. 20uL of each samples was collected as TL (Total lysate) […]\n(§12) samples. […]"}, "PPAT": {"molecular_target": "T2, PPAT (Homo sapiens, UniProt Q06203)", "T2 construct": "endogenous in cells; host or cells: HEK293T", "T2 sequence (Q06203 12-517)": "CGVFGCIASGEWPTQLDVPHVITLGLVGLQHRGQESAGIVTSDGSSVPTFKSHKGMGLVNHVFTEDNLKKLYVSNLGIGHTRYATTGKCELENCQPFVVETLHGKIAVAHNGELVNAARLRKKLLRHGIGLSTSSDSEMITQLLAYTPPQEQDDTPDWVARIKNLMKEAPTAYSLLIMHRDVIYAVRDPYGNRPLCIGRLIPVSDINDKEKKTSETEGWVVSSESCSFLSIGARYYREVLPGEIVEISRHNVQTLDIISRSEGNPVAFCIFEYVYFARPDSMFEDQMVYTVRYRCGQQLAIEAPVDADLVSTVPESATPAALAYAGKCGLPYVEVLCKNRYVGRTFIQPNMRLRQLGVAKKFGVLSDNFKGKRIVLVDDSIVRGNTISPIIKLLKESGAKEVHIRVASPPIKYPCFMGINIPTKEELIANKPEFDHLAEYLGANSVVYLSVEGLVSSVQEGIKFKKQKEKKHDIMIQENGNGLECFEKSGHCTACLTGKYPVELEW", "assay": "ABPP chemical proteomics (LC-MS/MS) in HEK293T cells", "format": "cell-based", "description": "as §1, §2, §3, §4, §5, §6, §7, §8, §9, §10, §11, §12"}, "SRP68": {"molecular_target": "T3, SRP68 (Homo sapiens, UniProt Q9UHB9)", "T3 construct": "endogenous in cells; host or cells: HEK293T", "T3 sequence (Q9UHB9 whole entry)": "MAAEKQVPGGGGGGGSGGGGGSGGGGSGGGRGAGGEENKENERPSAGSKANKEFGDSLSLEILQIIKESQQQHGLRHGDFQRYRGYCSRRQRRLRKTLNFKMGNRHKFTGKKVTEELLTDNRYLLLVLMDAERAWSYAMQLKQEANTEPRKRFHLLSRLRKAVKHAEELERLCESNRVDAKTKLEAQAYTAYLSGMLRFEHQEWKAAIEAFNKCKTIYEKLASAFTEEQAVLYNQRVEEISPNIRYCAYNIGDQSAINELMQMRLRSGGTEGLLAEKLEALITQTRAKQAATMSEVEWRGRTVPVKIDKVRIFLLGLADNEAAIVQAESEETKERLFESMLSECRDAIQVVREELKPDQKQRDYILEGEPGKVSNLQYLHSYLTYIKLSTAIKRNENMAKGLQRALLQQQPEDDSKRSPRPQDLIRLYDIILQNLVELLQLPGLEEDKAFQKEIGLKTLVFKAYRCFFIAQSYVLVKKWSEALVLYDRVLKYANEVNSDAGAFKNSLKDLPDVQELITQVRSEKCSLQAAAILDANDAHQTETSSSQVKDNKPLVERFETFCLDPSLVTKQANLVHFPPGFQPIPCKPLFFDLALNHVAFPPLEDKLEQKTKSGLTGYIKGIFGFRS", "assay": "ABPP chemical proteomics (LC-MS/MS) in HEK293T cells", "format": "cell-based", "description": "as §1, §2, §3, §4, §5, §6, §7, §8, §9, §10, §11, §12"}, "USP30": {"tested_on": "USP30", "conditions": "following 30 minutes incubation; read-out: reported IC50 against USP30; cited from earlier work"}, "ABHD6": {"molecular_target": "T4, ABHD6 (Homo sapiens, UniProt Q9BV23)", "T4 construct": "endogenous in cells; host or cells: HEK293T", "T4 sequence (Q9BV23 whole entry)": "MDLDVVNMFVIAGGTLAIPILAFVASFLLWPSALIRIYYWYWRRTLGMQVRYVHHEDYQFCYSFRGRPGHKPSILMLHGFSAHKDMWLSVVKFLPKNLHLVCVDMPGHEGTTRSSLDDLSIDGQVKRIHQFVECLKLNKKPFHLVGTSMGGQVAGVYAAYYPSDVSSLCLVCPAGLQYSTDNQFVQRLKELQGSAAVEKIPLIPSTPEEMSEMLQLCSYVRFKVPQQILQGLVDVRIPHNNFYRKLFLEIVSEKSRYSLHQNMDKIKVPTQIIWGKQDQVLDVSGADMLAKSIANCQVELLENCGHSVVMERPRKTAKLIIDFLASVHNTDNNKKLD", "assay": "ABPP chemical proteomics (LC-MS/MS) in HEK293T cells", "format": "cell-based", "description": "as §1, §2, §3, §4, §5, §6, §7, §8, §9, §10, §11, §12"}, "ALDH1A1": {"molecular_target": "T5, ALDH1A1 (Homo sapiens, UniProt P00352)", "T5 construct": "endogenous in cells; host or cells: HEK293T", "assay": "ABPP chemical proteomics (LC-MS/MS) in HEK293T cells", "format": "cell-based", "description": "as §1, §2, §3, §4, §5, §6, §7, §8, §9, §10, §11, §12"}, "ALDH3A2": {"molecular_target": "T6, ALDH3A2 (Homo sapiens, UniProt P51648)", "T6 construct": "endogenous in cells; host or cells: HEK293T", "T6 sequence (P51648 whole entry)": "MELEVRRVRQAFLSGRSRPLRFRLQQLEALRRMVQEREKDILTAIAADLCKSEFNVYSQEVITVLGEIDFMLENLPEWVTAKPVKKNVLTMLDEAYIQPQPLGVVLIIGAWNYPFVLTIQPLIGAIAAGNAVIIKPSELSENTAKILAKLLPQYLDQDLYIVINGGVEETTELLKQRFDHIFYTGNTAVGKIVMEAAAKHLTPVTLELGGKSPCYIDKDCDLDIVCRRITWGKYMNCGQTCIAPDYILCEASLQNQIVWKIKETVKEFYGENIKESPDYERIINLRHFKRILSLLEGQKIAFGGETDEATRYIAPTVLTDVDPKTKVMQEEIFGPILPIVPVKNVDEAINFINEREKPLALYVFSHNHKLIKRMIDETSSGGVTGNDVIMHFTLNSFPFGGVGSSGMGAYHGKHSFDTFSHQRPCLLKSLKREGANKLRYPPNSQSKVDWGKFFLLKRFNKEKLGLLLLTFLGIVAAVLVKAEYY", "assay": "ABPP chemical proteomics (LC-MS/MS) in HEK293T cells", "format": "cell-based", "description": "as §1, §2, §3, §4, §5, §6, §7, §8, §9, §10, §11, §12"}, "ALDH9A1": {"molecular_target": "T7, ALDH9A1 (Homo sapiens, UniProt P49189)", "T7 construct": "endogenous in cells; host or cells: HEK293T", "T7 sequence (P49189 whole entry)": "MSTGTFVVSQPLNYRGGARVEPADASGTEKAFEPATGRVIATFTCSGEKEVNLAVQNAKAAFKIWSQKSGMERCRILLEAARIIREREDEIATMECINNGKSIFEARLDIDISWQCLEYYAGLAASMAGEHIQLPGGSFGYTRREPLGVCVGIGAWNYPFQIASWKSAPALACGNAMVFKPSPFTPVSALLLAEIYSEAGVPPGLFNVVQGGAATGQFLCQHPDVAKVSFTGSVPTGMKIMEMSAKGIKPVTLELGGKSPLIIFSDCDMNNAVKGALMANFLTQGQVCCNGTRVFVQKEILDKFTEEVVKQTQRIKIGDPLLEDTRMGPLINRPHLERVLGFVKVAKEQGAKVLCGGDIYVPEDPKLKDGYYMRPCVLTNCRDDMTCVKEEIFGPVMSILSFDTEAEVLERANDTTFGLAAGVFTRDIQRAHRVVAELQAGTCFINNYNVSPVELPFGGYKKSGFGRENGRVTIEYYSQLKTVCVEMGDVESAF", "assay": "ABPP chemical proteomics (LC-MS/MS) in HEK293T cells", "format": "cell-based", "description": "as §1, §2, §3, §4, §5, §6, §7, §8, §9, §10, §11, §12"}, "FAAH": {"molecular_target": "T8, FAAH (Homo sapiens, UniProt O00519)", "T8 construct": "endogenous in cells; host or cells: HEK293T", "T8 sequence (O00519 whole entry)": "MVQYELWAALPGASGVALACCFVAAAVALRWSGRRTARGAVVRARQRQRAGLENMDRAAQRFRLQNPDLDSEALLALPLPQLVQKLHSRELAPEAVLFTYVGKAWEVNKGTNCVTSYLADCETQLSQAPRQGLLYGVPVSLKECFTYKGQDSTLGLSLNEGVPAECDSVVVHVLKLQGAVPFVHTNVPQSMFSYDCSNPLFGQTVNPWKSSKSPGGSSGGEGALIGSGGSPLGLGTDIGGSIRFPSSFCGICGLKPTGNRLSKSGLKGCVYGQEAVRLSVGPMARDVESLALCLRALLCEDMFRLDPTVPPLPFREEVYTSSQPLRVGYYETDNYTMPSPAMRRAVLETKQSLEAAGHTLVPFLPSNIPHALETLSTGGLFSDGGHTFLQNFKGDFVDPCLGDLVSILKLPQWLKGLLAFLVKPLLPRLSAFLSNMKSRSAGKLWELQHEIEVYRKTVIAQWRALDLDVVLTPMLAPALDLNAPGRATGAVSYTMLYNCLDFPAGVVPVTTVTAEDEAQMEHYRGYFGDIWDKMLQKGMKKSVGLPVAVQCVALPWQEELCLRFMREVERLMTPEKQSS", "assay": "ABPP chemical proteomics (LC-MS/MS) in HEK293T cells", "format": "cell-based", "description": "as §1, §2, §3, §4, §5, §6, §7, §8, §9, §10, §11, §12"}, "FAAH2": {"molecular_target": "T9, FAAH2 (Homo sapiens, UniProt Q6GMR7)", "T9 construct": "endogenous in cells; host or cells: HEK293T", "T9 sequence (Q6GMR7 whole entry)": "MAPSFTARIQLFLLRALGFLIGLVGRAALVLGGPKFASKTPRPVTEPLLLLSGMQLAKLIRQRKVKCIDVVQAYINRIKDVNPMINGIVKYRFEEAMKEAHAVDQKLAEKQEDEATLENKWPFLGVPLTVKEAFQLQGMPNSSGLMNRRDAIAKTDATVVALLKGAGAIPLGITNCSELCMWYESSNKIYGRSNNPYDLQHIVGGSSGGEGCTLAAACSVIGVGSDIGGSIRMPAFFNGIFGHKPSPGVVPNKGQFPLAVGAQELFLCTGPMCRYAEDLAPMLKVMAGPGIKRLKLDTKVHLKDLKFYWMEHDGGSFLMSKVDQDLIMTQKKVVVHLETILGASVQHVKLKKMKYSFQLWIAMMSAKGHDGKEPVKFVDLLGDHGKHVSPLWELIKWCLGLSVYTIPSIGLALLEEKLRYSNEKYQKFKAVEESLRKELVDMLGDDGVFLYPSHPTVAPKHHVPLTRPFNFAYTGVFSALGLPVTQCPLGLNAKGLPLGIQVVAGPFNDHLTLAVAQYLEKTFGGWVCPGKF", "assay": "ABPP chemical proteomics (LC-MS/MS) in HEK293T cells", "format": "cell-based", "description": "as §1, §2, §3, §4, §5, §6, §7, §8, §9, §10, §11, §12"}, "MRPS2": {"molecular_target": "T10, MRPS2 (Homo sapiens, UniProt Q9Y399)", "T10 construct": "endogenous in cells; host or cells: HEK293T", "assay": "ABPP chemical proteomics (LC-MS/MS) in HEK293T cells", "format": "cell-based", "description": "as §1, §2, §3, §4, §5, §6, §7, §8, §9, §10, §11, §12"}, "NIT1": {"molecular_target": "T11, NIT1 (Homo sapiens, UniProt Q86X76)", "T11 construct": "endogenous in cells; host or cells: HEK293T", "T11 sequence (Q86X76 14-327)": "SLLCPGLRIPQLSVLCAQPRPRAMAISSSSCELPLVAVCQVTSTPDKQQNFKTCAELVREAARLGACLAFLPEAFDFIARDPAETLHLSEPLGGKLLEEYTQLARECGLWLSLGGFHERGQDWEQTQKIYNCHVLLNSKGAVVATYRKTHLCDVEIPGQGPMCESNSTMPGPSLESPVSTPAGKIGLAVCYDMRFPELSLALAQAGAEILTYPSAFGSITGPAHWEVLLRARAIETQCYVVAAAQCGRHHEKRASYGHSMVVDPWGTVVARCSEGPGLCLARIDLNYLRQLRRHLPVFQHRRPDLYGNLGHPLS", "assay": "ABPP chemical proteomics (LC-MS/MS) in HEK293T cells", "format": "cell-based", "description": "as §1, §2, §3, §4, §5, §6, §7, §8, §9, §10, §11, §12"}, "PARK7": {"molecular_target": "T12, PARK7 (Homo sapiens, UniProt Q99497)", "T12 construct": "endogenous in cells; host or cells: HEK293T", "T12 sequence (Q99497 whole entry)": "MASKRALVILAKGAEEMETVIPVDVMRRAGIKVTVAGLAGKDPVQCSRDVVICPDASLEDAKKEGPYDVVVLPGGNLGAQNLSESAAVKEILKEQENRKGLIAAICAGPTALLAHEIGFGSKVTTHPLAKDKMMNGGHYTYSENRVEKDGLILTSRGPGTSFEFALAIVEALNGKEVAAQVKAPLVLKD", "assay": "ABPP chemical proteomics (LC-MS/MS) in HEK293T cells", "format": "cell-based", "conditions": "30 nM, 10 min", "description": "as §1, §2, §3, §4, §5, §6, §7, §8, §9, §10, §11, §12"}, "[1]": {"conditions": "compound 3 out-competition with IMP-2586 labelling, HEK293T (Table S5, Fig.5d)"}, "[2]": {"conditions": "IMP-2587 labelling vs DMSO, 30 nM, 10 min, HEK293T (Table S2, Fig.5a)"}, "[3]": {"conditions": "IMP-2586 labelling vs DMSO, 30 nM, 10 min, HEK293T (Table S4, Fig.5c)"}, "[4]": {"conditions": "compound 1 out-competition with IMP-2587 labelling, HEK293T (Table S3, Fig.5b)"}}, "data": [{"smiles": "N#CN1CC[C@@H](NC(=O)c2cc(-c3ccccc3Oc3ccccc3)n[nH]2)C1", "note": "[compound 3, reference compound]", "values": [{"measurement": "Difference (log2 fold change of enrichment)", "setting": "PGAP1; [1]", "value": -2.38}, {"measurement": "Difference (log2 fold change of enrichment)", "setting": "PPAT; [1]", "value": -0.44}, {"measurement": "Difference (log2 fold change of enrichment)", "setting": "SRP68; [1]", "value": -0.40}, {"measurement": "IC50", "setting": "USP30", "value": 1.5, "unit": "nM"}]}, {"smiles": "C#Cc1cccc(-c2cc(NC(=O)CC3CCN(C#N)C3)on2)c1", "note": "(centres unmarked) [IMP-2587]", "values": [{"measurement": "Difference (log2 fold change of enrichment)", "setting": "ABHD6; [2]", "value": 2.06}, {"measurement": "Difference (log2 fold change of enrichment)", "setting": "ALDH1A1; [2]", "value": 2.95}, {"measurement": "Difference (log2 fold change of enrichment)", "setting": "ALDH3A2; [2]", "value": 2.95}, {"measurement": "Difference (log2 fold change of enrichment)", "setting": "ALDH9A1; [2]", "value": 1.70}, {"measurement": "Difference (log2 fold change of enrichment)", "setting": "FAAH; [2]", "value": 3.97}, {"measurement": "Difference (log2 fold change of enrichment)", "setting": "FAAH2; [2]", "value": 4.10}, {"measurement": "Difference (log2 fold change of enrichment)", "setting": "MRPS2; [2]", "value": 2.58}, {"measurement": "Difference (log2 fold change of enrichment)", "setting": "NIT1; [2]", "value": 2.01}, {"measurement": "Difference (log2 fold change of enrichment)", "setting": "PARK7; IMP-2587 labelling vs DMSO, HEK293T (Table S2, Fig.5a)", "value": 1.32}]}, {"smiles": "N#CN1CC[C@@H](NC(=O)c2cc(-c3ccccc3Oc3ccc(N=[N+]=[N-])cc3)n[nH]2)C1", "note": "[IMP-2586]", "values": [{"measurement": "Difference (log2 fold change of enrichment)", "setting": "PARK7; IMP-2586 labelling vs DMSO, HEK293T (Table S4, Fig.5c)", "value": 1.30}, {"measurement": "Difference (log2 fold change of enrichment)", "setting": "PGAP1; [3]", "value": 2.66}, {"measurement": "Difference (log2 fold change of enrichment)", "setting": "PPAT; [3]", "value": 0.83}, {"measurement": "Difference (log2 fold change of enrichment)", "setting": "SRP68; [3]", "value": 0.45}]}, {"smiles": "N#CN1CC[C@H](CC(=O)Nc2cc(-c3cccc(Cl)c3)no2)C1", "note": "[compound 1, reference compound]", "values": [{"measurement": "Difference (log2 fold change of enrichment)", "setting": "ABHD6; [4]", "value": -1.95}, {"measurement": "Difference (log2 fold change of enrichment)", "setting": "ALDH1A1; [4]", "value": -2.59}, {"measurement": "Difference (log2 fold change of enrichment)", "setting": "ALDH3A2; [4]", "value": -1.88}, {"measurement": "Difference (log2 fold change of enrichment)", "setting": "ALDH9A1; [4]", "value": -1.60}, {"measurement": "Difference (log2 fold change of enrichment)", "setting": "FAAH; [4]", "value": -3.46}, {"measurement": "Difference (log2 fold change of enrichment)", "setting": "FAAH2; [4]", "value": -3.82}, {"measurement": "Difference (log2 fold change of enrichment)", "setting": "MRPS2; [4]", "value": -2.58}, {"measurement": "Difference (log2 fold change of enrichment)", "setting": "NIT1; [4]", "value": -1.86}, {"measurement": "IC50", "setting": "USP30", "value": "1 to 10", "unit": "nM"}]}]}
